Measured values as given in patent US12678454B2, “Bicarbonate as a potentiator for antimicrobial agents” (priority 2017, dated 2026).
Like-named read-outs stand apart in the source and are kept apart here. Marks after values point to notes of the source that are not given here.

Legend:
[1] = test system: S. aureus (Strain Newman); assay: MIC determination (CLSI protocol) in MHB; type: cell-based, Staphylococcus aureus; conditions: for MIC, S. aureus, MHB−: MHB without sodium bicarbonate
Description: (§1) In the following experiments, bacterial cells were cultured in 96-well microtiter plates in cation-adjusted Mueller-Hinton Broth (MHB) for 18 h at 37° C. The main strains used in this study were E. coli (K-12 BW25113) (placed in stationary incubator) and S. aureus (Strain Newman) (incubated at 250 r.p.m). Knockout strains (ΔtolcC and ΔychM) were used from the Keio knockout collection (Baba, T. et al. Construction of Escherichia coli K-12 in-frame, single-gene knockout mutants: the Keio collection. Mol Syst Biol 2, 2006 0008, doi:10.1038/msb4100050 (2006)). For minimum concentration for inhibition (MIC) determination and checkerboard analyses, Clinical & Laboratory Standards Institute (CLSI) protocol was used. […] DiSC3 loading of S. aureus cells was performed as previously described (Farha, M. A., Verschoor, C. P., Bowdish, D. & Brown, E. D. Collapsing the proton motive force to identify synergistic combinations against Staphylococcus aureus. Chemistry & biology 20, 1168-1178, doi:10.1016/j.chembiol.2013.07.006 (2013)). CCCP concentration of 20 μM was used. pH adjustments were made by addition of HCl or NaOH. INT assay and ATP bioluminescence assays were performed as previously described (Farha, M. A., Verschoor, C. P., Bowdish, D. & Brown, E. D. Collapsing the proton motive force to identify synergistic combinations against Staphylococcus aureus. Chemistry & biology 20, 1168-1178, doi:10.1016/j.chembiol.2013.07.006 (2013)). For chemical-genomic studies, the Keio library was grown overnight in cation-adjusted MHB broth, in 384-well plates. From these, treatment plates (25 mM sodium bicarbonate, or a sterile water control) were inoculated and grown for 15 hours at 37° C., in a stationary incubator. Data was normalized according to Mangat et al (Mangat, C. S., Bharat, A., Gehrke, S. S. & Brown, E. D. Rank ordering plate data facilitates data visualization and normalization in high-throughput screening. J Biomol Screen 19, 1314-1320, doi:10.1177/1087057114534298 (2014)), with gene products and GO terms mined from EcoCyc. The GFP promoter library (Keseler, I. M. et al. EcoCyc: fusing model organism databases with systems biology. Nucleic Acids Res 41, D605-612, doi:10.1093/nar/gks1027 (2013)) was grown for 18 hours at ambient temperature with the same inoculation strategy as with the Keio collection. The analysis pipeline of Zaslaver et al (Zaslaver, A. et al. A comprehensive library of fluorescent transcriptional reporters for Escherichia coli. Nat Methods 3, 623-628, doi:10.1038/nmeth895 (2006)) was used to generate maps of promoter activity, from which lists of promoters with increased or decreased activity were compiled.

E. coli (K-12 BW25113) = type: cell-based, Escherichia coli; set-up: MIC, E. coli, MHB− / MIC, E. coli, MHB+: unit not given here; conditions: for MIC, E. coli, MHB−: MHB without sodium bicarbonate
Description: as §1

[2] = for pH of MHB media: prior to pH-adjusting to 7.4
From the text: Test media were pH-adjusted upon addition of sodium bicarbonate for all studies reported herein.

Klebsiella pneumoniae = assay: MIC determination (CLSI protocol); type: cell-based
Description: as §1, with “The GFP promoter library (Keseler, I. M. et al. EcoCyc: fusing model organism databases with systems biology. Nucleic Acids Res 41, D605-612, doi:10.1093/nar/gks1027 (2013)) was grown for 18 hours at ambient temperature with the same inoculation strategy as with the Keio collection. The analysis pipeline of Zaslaver et al (Zaslaver, A. et al. A comprehensive library of fluorescent transcriptional reporters for Escherichia coli. Nat Methods 3, 623-628, doi:10.1038/nmeth895 (2006)) was used to generate maps of promoter activity, from which lists of promoters with increased or decreased activity were compiled.” left out

Acinetobacter baumannii = assay: MIC determination (CLSI protocol); type: cell-based
Description: as §1, with “The GFP promoter library (Keseler, I. M. et al. EcoCyc: fusing model organism databases with systems biology. Nucleic Acids Res 41, D605-612, doi:10.1093/nar/gks1027 (2013)) was grown for 18 hours at ambient temperature with the same inoculation strategy as with the Keio collection. The analysis pipeline of Zaslaver et al (Zaslaver, A. et al. A comprehensive library of fluorescent transcriptional reporters for Escherichia coli. Nat Methods 3, 623-628, doi:10.1038/nmeth895 (2006)) was used to generate maps of promoter activity, from which lists of promoters with increased or decreased activity were compiled.” left out

Pseudomonas aeruginosa = assay: MIC determination (CLSI protocol); type: cell-based
Description: as §1, with “The GFP promoter library (Keseler, I. M. et al. EcoCyc: fusing model organism databases with systems biology. Nucleic Acids Res 41, D605-612, doi:10.1093/nar/gks1027 (2013)) was grown for 18 hours at ambient temperature with the same inoculation strategy as with the Keio collection. The analysis pipeline of Zaslaver et al (Zaslaver, A. et al. A comprehensive library of fluorescent transcriptional reporters for Escherichia coli. Nat Methods 3, 623-628, doi:10.1038/nmeth895 (2006)) was used to generate maps of promoter activity, from which lists of promoters with increased or decreased activity were compiled.” left out

Enterococcus faecium = test system: Enterococcus faecium
Description: In the following experiments, bacterial cells were cultured in 96-well microtiter plates in cation-adjusted Mueller-Hinton Broth (MHB) for 18 h at 37° C. The main strains used in this study were E. coli (K-12 BW25113) (placed in stationary incubator) and S. aureus (Strain Newman) (incubated at 250 r.p.m). Knockout strains (ΔtolcC and ΔychM) were used from the Keio knockout collection (Baba, T. et al. Construction of Escherichia coli K-12 in-frame, single-gene knockout mutants: the Keio collection. Mol Syst Biol 2, 2006 0008, doi:10.1038/msb4100050 (2006)). For minimum concentration for inhibition (MIC) determination and checkerboard analyses, Clinical & Laboratory Standards Institute (CLSI) protocol was used. […] DiSC3 loading of S. aureus cells was performed as previously described (Farha, M. A., Verschoor, C. P., Bowdish, D. & Brown, E. D. Collapsing the proton motive force to identify synergistic combinations against Staphylococcus aureus. Chemistry & biology 20, 1168-1178, doi:10.1016/j.chembiol.2013.07.006 (2013)). CCCP concentration of 20 μM was used. pH adjustments were made by addition of HCl or NaOH. […]

[3] = test system: Klebsiella pneumonia (ATCC 43816); conditions: mice
Description: Mice were infected with Klebsiella pneumonia (ATCC 43816; inoculum=2.5×10^6 CFU/mL). Following infection, the infected mice were treated with 4 mL nebulized doses of 225 mM sodium bicarbonate using a chamber nebulizer delivery system (Kent Scientific) at 2, 12 and 24 hours post-infection. The mice were sacrificed after 36 hours, and bacterial counts enumerated.

E. coli = assay: Microdilution checkerboard analyses; type: cell-based, Escherichia coli
Description: as §1, with “The GFP promoter library (Keseler, I. M. et al. EcoCyc: fusing model organism databases with systems biology. Nucleic Acids Res 41, D605-612, doi:10.1093/nar/gks1027 (2013)) was grown for 18 hours at ambient temperature with the same inoculation strategy as with the Keio collection. The analysis pipeline of Zaslaver et al (Zaslaver, A. et al. A comprehensive library of fluorescent transcriptional reporters for Escherichia coli. Nat Methods 3, 623-628, doi:10.1038/nmeth895 (2006)) was used to generate maps of promoter activity, from which lists of promoters with increased or decreased activity were compiled.” left out

[4] = test system: methicillin-resistance Staphylococcus aureus (MRSA) USA-300; assay: Superficial skin infection model, tape-stripped mice; type: in vivo; conditions: topical 0.5% aqueous solution with or without bicarbonate (50 mM)
Description: In this model, an infection is established by disrupting the skin barrier through partial removal of the epidermal layer by stripping with adhesive tape and with subsequent application of the pathogen. Tape-stripped mice infected with 4×10^6 CFU/mL A. baumannii (FIG. 4A) or 4×10^6 CFU/mL methicillin-resistance Staphylococcus aureus (MRSA) USA-300 (FIG. 4B). […] This treatment regime was also conducted for the Vehicle (1.9% Boric Acid, pH 7) as a control (n=4). Tissue samples were collected at 25 hr post-infection (FIG. 4A) and 28 hr post-infection (FIG. 4B). […] (FIG. 5).

A. baumannii = assay: Murine model of systemic A. baumannii infection; type: in vivo; conditions: mice
Description: Mice were treated two-hours post-infection to allow complete organ occupancy by the injected cells.

[5] = fold enhancement of MIC with 25 mM sodium bicarbonate, negative = suppression

Compound: CO[C@H]1/C=C/O[C@@]2(C)Oc3c(C)c(O)c4c(O)c(c(/C=N/N5CCN(C)CC5)c(O)c4c3C2=O)NC(=O)/C(C)=C\C=C\[C@H](C)[C@H](O)[C@@H](C)[C@@H](O)[C@@H](C)[C@H](OC(C)=O)[C@@H]1C [Rifampicin]
- Fold, S. aureus [1]: −4 fold
- MIC, S. aureus, MHB− [1]: 0.0078 µg/mL
- Fold, E. coli (E. coli (K-12 BW25113)): −2 fold
- MIC, E. coli, MHB+ (E. coli (K-12 BW25113)): 64

Compound: O=C([O-])O.[Na+] [Sodium bicarbonate]
- MIC of sodium bicarbonate ([1]; Staphylococcus aureus): 50 to 100 mM
- pH of MHB media ([2]; 3.12 mM sodium bicarbonate): 7.42
- pH of MHB media ([2]; 25 mM sodium bicarbonate): 7.53
- pH of MHB media ([2]; 50 mM sodium bicarbonate): 7.61
- pH of MHB media ([2]; 100 mM sodium bicarbonate): 7.71
- MIC of sodium bicarbonate (Klebsiella pneumoniae): 100 mM
- MIC of sodium bicarbonate (Acinetobacter baumannii): 50 mM
- MIC of sodium bicarbonate (Pseudomonas aeruginosa): >100 mM
- MIC of sodium bicarbonate (Enterococcus faecium): 50 to 100 mM
- tolerability of nebulized bicarbonate ([3]; 225 mM nebulized): well tolerated
- bacterial counts ([3]; 4 mL nebulized 225 mM sodium bicarbonate at 2, 12, 24 h, counts after 36 hours, inoculum 2.5×10^6 CFU/mL): 4×10^4-4×10^5 CFU/mL
- effect on activity of pentamidine (checkerboard) (E. coli; E. coli, dose-dependent): greatly potentiated the activity of pentamidine
- MIC of sodium bicarbonate (E. coli (K-12 BW25113); Escherichia coli): 100 mM

Compound: CN[C@@H]1[C@H](O)[C@H](NC)[C@H]2O[C@@]3(O)C(=O)C[C@@H](C)O[C@H]3O[C@@H]2[C@H]1O [Spectinomycin]
- Fold, S. aureus [1]: 8 fold
- MIC, S. aureus, MHB− [1]: 64 µg/mL
- Fold, E. coli (E. coli (K-12 BW25113)): 4 fold
- MIC, E. coli, MHB+ (E. coli (K-12 BW25113)): 4

Compound: CN[C@H](CC(C)C)C(=O)N[C@H]1C(=O)N[C@@H](CC(N)=O)C(=O)N[C@H]2C(=O)N[C@H]3C(=O)N[C@H](C(=O)N[C@H](C(=O)O)c4cc(O)cc(O)c4-c4cc3ccc4O)[C@H](O)c3ccc(c(Cl)c3)Oc3cc2cc(c3O[C@@H]2O[C@H](CO)[C@@H](O)[C@H](O)[C@H]2O[C@H]2C[C@](C)(N)[C@H](O)[C@H](C)O2)Oc2ccc(cc2Cl)[C@H]1O [Vancomycin]
- MIC, S. aureus, MHB− [1]: 1 µg/mL
- Fold, S. aureus [1, 5]: −4 fold
- Fold, E. coli (E. coli (K-12 BW25113); [5]): 1 fold

Compound: N=C(N)c1ccc(OCCCCCOc2ccc(C(=N)N)cc2)cc1 [pentamidine]
- effect of addition of bicarbonate on efficacy of pentamidine in clearing MRSA infection [4]: increased the antibacterial efficacy
- potentiation of antibacterial activity in the presence of bicarbonate, average (Gram-negative organisms): 40 fold
- A. baumannii organ load (spleen), combination (A. baumannii; combination of pentamidine 10 mg/kg and novobiocin IP): total clearance
- decrease of A. baumannii organ load (spleen) (A. baumannii; pentamidine alone IP): seven
- MIC of pentamidine, tissue culture media formulated to mimic the natural environment (E. coli (K-12 BW25113)): 1.5 µg/mL
- potentiation of antibacterial activity in the presence of bicarbonate, average (Gram-positive organisms): 50 fold

Compound: O=P([O-])([O-])[O-].[Na+].[Na+].[Na+] [trisodium phosphate]
- increase of the pH of the media ([2]; trisodium phosphate added): 3 units
- effect on activity of dirithromycin (checkerboard) (E. coli; pH not adjusted (pH ~10)): potentiated the activity of dirithromycin
- effect on activity of dirithromycin (checkerboard) (E. coli; pH of the medium adjusted to 7.2): loss of synergy

Compound: Gentamicin
- Fold, S. aureus [1]: 2 fold
- Fold, E. coli (E. coli (K-12 BW25113)): 8 fold
- MIC, E. coli, MHB+ (E. coli (K-12 BW25113)): 0.25
- effect of CCCP pre-treatment on potentiation by sodium bicarbonate (E. coli (K-12 BW25113)): abolishes the potentiation
- MIC, E. coli, MHB− (E. coli (K-12 BW25113)): 2

Compound: Lysozyme
- MIC in MHB ([1]; S. aureus (strain Newman), MHB): >256 ** μg/mL
- MIC in MHB + 25 mM bicarbonate ([1]; S. aureus (strain Newman), MHB + 25 mM sodium bicarbonate): >256 ** μg/mL
- effect of physiological sodium bicarbonate on inhibitory activity (E. coli (K-12 BW25113); E. coli, 25 mM sodium bicarbonate): enhanced the inhibitory activity

Compound: Neomycin
- Fold, S. aureus [1]: 4 fold
- Fold, E. coli (E. coli (K-12 BW25113)): 4 fold
- MIC, E. coli, MHB+ (E. coli (K-12 BW25113)): 0.25
- MIC, E. coli, MHB− (E. coli (K-12 BW25113)): 1

Compound: Polymyxin B
- Fold, S. aureus [1]: 8 fold
- Fold, E. coli (E. coli (K-12 BW25113)): −2 fold
- MIC, E. coli, MHB+ (E. coli (K-12 BW25113)): 0.5
- MIC, E. coli, MHB− (E. coli (K-12 BW25113)): 0.25
